Measured values from paper PMC3790782, “Optimization and Pharmacological Validation of a Leukocyte Migration Assay in Zebrafish Larvae for the Rapid In Vivo Bioactivity Analysis of Anti-Inflammatory Secondary Metabolites” (PLoS ONE, 2013).
Marks after values point to notes of the source that are not given here.

Legend:
[1] = system: NO, PGE2, COX-2, RAW 264.7; design: method as in PMID 21771629, PMID 21870032; conditions: cited from earlier work
zebrafish larvae = conditions: 4 dpf zebrafish larvae, 8 h post-incubation; not more than 2 of 10 larvae with signs of toxicity
Procedure: For the toxicological analysis, ten 4 dpf zebrafish larvae were used per well in 24-well culture plates. Incubation of each set of larvae at 28°C (±0.5) was done with SAIDs, NSAIDs and non-AIDs at concentrations ranging from 0.1 µM to 500 µM, with NPs at concentrations ranging from 1 µM to 500 µM, and with PEs at concentrations ranging from 1 ug/ml to 1 mg/ml. Controls containing only vehicle (1% DMSO) and untreated larvae were processed in parallel. Examination of each set of larvae was done under light microscopy (Carl Zeiss Stemi 2000C) each hour during a period of 8 h, and a final evaluation at 24 h post-incubation. At 8 h post-incubation, signs of toxicity, e.g. pericardial oedema, cardiovascular defects (arrhythmia or decreased circulation), balance defects (loss of normal posture), locomotor defects (decreased touch response), and ultimately death were scored for every drug, NP, and PE to further establish their maximum tolerated concentration (MTC). […] In this context, only non-toxic concentrations (below the MTC) were considered for further leukocyte migration analysis. All the toxicological assays were performed in duplicate using a different batch of zebrafish larvae for each set of experiments.
Toxicological assessment of all the samples analyzed in our study was done prior to the evaluation of their anti-inflammatory properties. The maximum tolerated concentrations (MTCs) were determined at 8 h post-treatment according to toxicological parameters including pericardial oedema, cardiovascular defects (arrhythmia or decreased circulation), balance defects (loss of normal posture), locomotor defects (decreased touch response), and death. […] Vehicle-treated (1% DMSO) and untreated larvae were processed in parallel to minimize experimental variability in this toxicological evaluation.

[2] = system: leukocyte migration in 4 dpf zebrafish larvae; assay: LPS-enhanced leukocyte migration assay (tail transection, MPO staining, RLM); format: in vivo, zebrafish (Danio rerio); design: Anti-inflammatory activity at MTC: concentration or dose not given beside the values; conditions: for Anti-inflammatory activity at MTC: (1−RLM)x100; for RLM (zebrafish-based assay): at the MTC given in Table 2
Procedure: The lipopolysaccharide- (LPS−)enhanced leukocyte migration assay was carried out by triplicate for each sample in 4 dpf zebrafish larvae. The total incubation period of the assay was eight hours. Initially, a pre-incubation step (i.e. prior to tail transection) of one hour at 28°C (±0.5°C) was carried out in 24-well culture plates. Ten larvae per well were incubated in 1 ml of testing mix, consisting of a specific concentration of each sample and the amount of 0.3 X Danieau’s medium necessary to complete 1 ml. Immediately after pre-incubation, complete tail transection in each larva was performed. Zebrafish larvae were first anesthetized by immersion in 0.3 X Danieau’s medium containing 70 µg/ml tricaine (ethyl 3-aminobenzoate, Sigma-Aldrich) and then tail transection near the tip was performed with a sterile scalpel under light microscopy (Carl Zeiss Stemi 2000C). Larvae were then placed in fresh 0.3 X Danieau’s medium without anesthetic for a few minutes until the final incubation period. For the last step, a new testing mix was prepared including 10 µg/ml lipopolysaccharides from Salmonella typhosa ATCC 10749 (LPS, Sigma-Aldrich Chemical) to enhance leukocyte migration to the injured zone. The final incubation step (i.e. subsequent to tail transection) of the injured larvae in contact with the pro-inflammatory agent and with the specific concentration of each SAID, NSAID, non-AID, NP, and PE at 28°C (±0.5°C) was done for 7 h. Within this period, sporadic evaluations of the larvae were done to examine their viability during the time of the assay. Larvae that completed the incubation time were fixed overnight in 4% formaldehyde (Sigma-Aldrich) at 4°C. Controls containing only the vehicle (1% DMSO) were processed in parallel.
Fixed larvae were gently washed twice with 1 X PBST (PBS-1X phosphate buffered saline, Gibco +0.1% Tween 20) for 5–10 min and then incubated at room temperature in 1 ml of freshly prepared Leucognost® Pox (Merck) staining solution, made according the directions of the provider. Observation of stained black-brown cells (leukocytes) in the larvae was possible within 15 min of incubation. Evaluation of the migrating leukocytes, particularly surrounding the injured region, in each larva was done under light microscopy (Carl Zeiss Stemi 2000C) and scoring was done using a migration scale established to semi-quantify the amount of migrating leukocytes on one side of each larva.
The average of the value achieved for each of the ten larvae tested in triplicate for one sample is expressed as relative leukocyte migration (RLM) according to the formula: RLM = leukocyte migration of the larva/average leukocyte migration of the negative control.
To determine the extent of leukocyte migration generated after exposing 4 dpf zebrafish larvae to mechanical and biological stimuli – namely tail transection and LPS exposure – we used a commercially available whole-mount cytochemical staining method (Leucognost® Pox, Merck) to detect MPO activity in situ. To minimize the number of handling steps post-staining, this method was chosen over the alternative myeloperoxidase stain Sudan Black B [26], [27], which also stains phospholipids, neural fats and sterols. In our experiments, we visualized migrating leukocytes in 4 dpf larvae at 8 h post-injury. Microscopic evaluations of MPO-stained larvae allowed us to score the degree of leukocyte migration at the trauma site according to a comparative scale that we established particularly for this purpose (Figure 2). Myeloperoxidase-positive cells, appearing as black-brown dots, were counted in a segment at the edge of the tail on one side of every larva (Figure 2). The number of leukocytes was then graded according to the comparative scale and subsequently converted into a relative value expressed as the relative leukocyte migration (RLM) activity for the total number or larvae for one sample.

NO, RAW 264.7 = system: NO, RAW 264.7; design: method as in PMID 15621702, PMID 19678956, PMID 19885845; conditions: cited from earlier work

| SMILES | IC50 [1] [µM] | Maximum tolerated concentration (MTC) (zebrafish larvae) [µM] | Leukocyte migration (RLM) ([2]; 1 µM, tail cut + 10 µg/ml LPS, relative to 1% DMSO control) | Leukocyte migration (RLM) ([2]; 30 µM, tail cut + 10 µg/ml LPS, relative to 1% DMSO control) | Anti-inflammatory activity at MTC [2] [%] | RLM (zebrafish-based assay) [2] | IC50 (NO, RAW 264.7) [µM] | Leukocyte migration (RLM) ([2]; 500 µM, tail cut + 10 µg/ml LPS, relative to 1% DMSO control) | response vs control in vivo at 1 µM ([2]; Danio rerio, Leukocyte, 8 h, 1 µM, tail cut + 10 µg/ml LPS, relative to 1% DMSO control) [%] | response vs control in vivo at 10 µM ([2]; Danio rerio, Leukocyte, 8 h, 10 µM, tail cut + 10 µg/ml LPS, relative to 1% DMSO control) [%] | response vs control in vivo at 30 µM ([2]; Danio rerio, Leukocyte, 8 h, 30 µM, tail cut + 10 µg/ml LPS, relative to 1% DMSO control) [%] | response vs control in vivo at 100 µM ([2]; Danio rerio, Leukocyte, 8 h, 100 µM, tail cut + 10 µg/ml LPS, relative to 1% DMSO control) [%] | response vs control in vivo at 300 µM ([2]; Danio rerio, Leukocyte, 8 h, 300 µM, tail cut + 10 µg/ml LPS, relative to 1% DMSO control) [%] | response vs control in vivo at 500 µM ([2]; Danio rerio, Leukocyte, 8 h, 500 µM, tail cut + 10 µg/ml LPS, relative to 1% DMSO control) [%] |
| --- | --- | --- | --- | --- | --- | --- | --- | --- | --- | --- | --- | --- | --- | --- |
| CC(C)=CCC[C@](C)(O)[C@@H]1CC=C(C)CC1 [(−)-α-bisabolol] | 100 | 30 | 0.53 ^* | 0.48 | 52 | 0.48 | – | – | – | – | – | – | – | – |
| O=C(O)/C=C/c1ccc(O)c(O)c1 [Caffeic acid, caffeic acid] | – | 500 | – | – | 86 | 0.14 | 4.8 | 0.14 ^** | 80 | 71 | 59 | 59 | 34 | 14 |
